# Laboratory results reported in the SangsterLogP compilation.
# Experiment: method code SF-AS, from PMID: 4083029
# Conditions: pH 5.0
row,SMILES,logD
1,O=c1c2c(nc3n1CCCCC3)CCCCCC2,2.41
2,Cc1ccc2nc3c(c(=O)n2c1)CCCCC3,2.07
3,O=c1c2c(nc3n1CCCCCC3)CCCC2,2.13
4,O=c1c2c(nc3n1CCCCCC3)CCC2,1.61
5,O=c1c2c(nc3n1CCCCCC3)CCCCC2,2.43
6,O=c1c2c(nc3ccccn13)CCCCC2,1.63
7,Cc1cccc2nc3c(c(=O)n12)CCCCC3,1.91
8,O=c1c2c(nc3ccccn13)CCCCCC2,2.29
9,Cc1ccn2c(=O)c3c(nc2c1)CCCCC3,1.86
10,O=c1c2ccccc2nc2n1CCCC2,1.49
11,Cc1cccc2nc3n(c(=O)c12)CCC3,1.59
12,O=c1c2c(nc3n1CCCC3)CCCCC2,1.6
13,Cc1ccc2c(=O)n3c(nc2c1)CCCCC3,2.44
